These are literature values, as cited in patent EP2408442B1, “PHARMACEUTICAL COMPOSITION PRESENTING ANTI-INFLAMMATORY PROPERTIES” (Bioxtract S.A., priority 2009, dated 2010).

SMILES strings stand for the structures.

The conditions of the series: 42 or 84 mg of oral not formulated curcumin, including metabolised forms (glucuronides or sulfates).

As to `COc1cc(C=CC(=O)CC(=O)C=Cc2ccc(O)c(OC)c2)ccc1O` [curcumin, 1,7-bis(4-hydroxyl-3-methoxyphenyl)-1,6-heptadiene-3,5-dione], the oral bioavailability result is given as “not bioavailable at all”.
